From patent US8362031B2, “Lonidamine analogues and treatment of polycystic kidney disease” (University of Kansas, priority 2004, dated 2013)

How the values were obtained:
Male Long Evans rats = experiment: In vivo antispermatogenic testing in Long Evans rats; conditions: for Mortality (25 mg/kg) / Response 25 mg/kg: 25 mg/kg single i.p. injection; for Response 25 mg/kg / Response 200 mg/kg: animals responding out of animals surviving, five days following injection; for Mortality (200 mg/kg) / Response 200 mg/kg: 200 mg/kg single i.p. injection; for Staging 25 mg/kg / Staging 200 mg/kg: seminiferous tubule staging; for Staging 25 mg/kg: 25 mg/kg i.p.; for Staging 200 mg/kg: 200 mg/kg i.p.
[1] = system: Salmonella Typhimurium TA 100; experiment: Ames test for mutagenicity (plate assay, colony count); conditions: 48 hours at 37° C.; for Ames test (+)S9 0.1 mg/pl. / Ames test (+)S9 1 mg/pl. / Ames test (+)S9 10 mg/pl.: (+)S9 mix; for Ames test (−)S9 0.1 mg/pl. / Ames test (−)S9 1 mg/pl. / Ames test (−)S9 10 mg/pl.: (−)S9 mix

Structure (SMILES) | Mortality (25 mg/kg) (Male Long Evans rats) | Response 25 mg/kg (Male Long Evans rats) | Mortality (200 mg/kg) (Male Long Evans rats) | Response 200 mg/kg (Male Long Evans rats) | Staging 25 mg/kg (Male Long Evans rats) | Staging 200 mg/kg (Male Long Evans rats) | Ames test (+)S9 0.1 mg/pl. [1] | Ames test (+)S9 1 mg/pl. [1] | Ames test (+)S9 10 mg/pl. [1] | Ames test (−)S9 0.1 mg/pl. [1] | Ames test (−)S9 1 mg/pl. [1] | Ames test (−)S9 10 mg/pl. [1]
NNC(=O)c1nn(Cc2ccc(Cl)cc2Cl)c2ccccc12 [AF2364, reference compound] | 0/5 | 3/5 | 0/5 | 5/5 | 3.5 | 2.1 | – | – | – | – | – | –
O=C(O)/C=C/c1nn(Cc2ccc(Cl)cc2Cl)c2ccccc12 [AF2785, reference compound] | 0/5 | 1/5 | 2/6 | 3/4 | 5.5 | 3.4 | – | – | – | – | – | –
O=C(O)c1nn(Cc2ccc(Cl)cc2Cl)c2cc(Cl)ccc12 [DD-MC-I, 6-chloro-1-(2,4-dichlorobenzyl)-1H-indazole-3-carboxylic acid] | 0/5 | 0/5 | 0/5 | 2/5 | – | – | Pass | Pass | Pass | Pass | Pass | Pass
COC(=O)c1nn(Cc2ccc(Cl)cc2Cl)c2ccc(C(F)(F)F)cc12 [JWS-1-254, 1-(2,4-dichlorobenzyl)-5-trifluoromethyl-1H-indazole-3-carboxylic acid methyl ester] | 0/5 | 0/5 | 0/5 | 0/5 | – | – | Pass | Pass | Pass | Pass | Pass | Pass
COC(=O)c1nn(Cc2ccc(F)cc2F)c2cc(C(F)(F)F)ccc12 [JWS-1-270, 1-(2,4-difluorobenzyl)-6-trifluoromethyl-1H-indazole-3-carboxylic acid methyl ester] | 0/5 | 0/5 | 0/5 | 0/5 | – | – | Pass | Pass | Pass | Pass | Pass | Pass
NNC(=O)c1nn(Cc2ccc(F)cc2F)c2cc(C(F)(F)F)ccc12 [JWS-1-274, 1-(2,4-difluorobenzyl)-6-trifluoromethyl-1H-indazole-3-carboxylic acid hydrazide] | 0/5 | 0/5 | 0/5 | 0/5 | – | – | Pass | Pass | Pass | Pass | Pass | Pass
O=C(O)c1nn(Cc2ccc(F)cc2F)c2cc(C(F)(F)F)ccc12 [JWS-1-276, 1-(2,4-difluorobenzyl)-6-trifluoromethyl-1H-indazole-3-carboxylic acid] | 0/5 | 0/5 | 0/5 | 0/5 | – | – | Pass | Pass | Pass | Pass | Pass | Pass
COC(=O)c1nn(Cc2ccc(F)cc2F)c2cc(Cl)ccc12 [JWS-1-280, 1-(2,4-difluorobenzyl)-6-chloro-1H-indazole-3-carboxylic acid methyl ester] | 0/5 | 0/5 | 0/5 | 0/5 | – | – | Pass | Pass | Pass | Pass | Pass | Pass
